Among the data in patent US20250205342A1, “IRAK DEGRADERS AND USES THEREOF” (Kymera Therapeutics, Inc., priority 2022, published 2025) are DC50 values, retold here.

The target in assay [1] is T1, IRAK4 (Homo sapiens, UniProt Q9NWZ3).
T1 sequence (Q9NWZ3 1-460): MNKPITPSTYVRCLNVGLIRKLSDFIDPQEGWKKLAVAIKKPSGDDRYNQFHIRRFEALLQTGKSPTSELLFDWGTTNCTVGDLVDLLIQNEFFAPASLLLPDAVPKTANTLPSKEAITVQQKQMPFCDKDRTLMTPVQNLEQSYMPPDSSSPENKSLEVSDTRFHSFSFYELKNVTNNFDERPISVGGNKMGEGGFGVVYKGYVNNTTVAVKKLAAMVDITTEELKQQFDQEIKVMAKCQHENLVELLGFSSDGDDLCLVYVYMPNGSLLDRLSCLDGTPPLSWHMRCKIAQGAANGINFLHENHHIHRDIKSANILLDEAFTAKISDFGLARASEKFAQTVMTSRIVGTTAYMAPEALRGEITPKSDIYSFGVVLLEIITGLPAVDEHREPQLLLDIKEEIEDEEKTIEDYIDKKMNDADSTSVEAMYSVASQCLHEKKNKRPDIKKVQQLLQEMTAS
The assay is described as follows: IRAK4 degradation in OCI-LY10 (MSD, Meso Scale Discovery). Format: cell-based. Also noted: endogenous in cells; host or cells: OCI-LY10. The following applies: OCI-LY10 cells, 24 h. The method in brief: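 OCI-LY10 cells (300,000/well) were treated with an 8-point 1:3 series (top 1 to 10 μM) for 4 to 24 h at 37 °C. IRAK4 in RIPA lysates was quantified by MSD sandwich immunoassay with two anti-IRAK4 antibodies. DC50 was fitted with a three-parameter logistic equation.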

Assay [2] has as its target T1, IRAK4. Description: hPBMC IRAK4 degradation flow assay (monocytes). The following applies: CD14 positive monocytes, 20 h, read-out: hPBMC monocyte DC50 at 20 h. Format: cell-based. The arrangement: endogenous in cells; host or cells: human PBMCs (monocytes, CD14 positive gate). A digest of the protocol:
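Thawed human PBMCs treated 20 h (or 4 h) at 37° C. with 10-point 5-fold compound dilutions, 0.1% DMSO, then fixed, methanol-permeabilized and stained for IRAK4 and lineage markers by flow, with monocytes gated CD14+. IRAK4 MFI normalized to DMSO and 10 µM control; DC50 and max degradation from 4-parameter logistic fit.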

For orientation: DC50 means the concentration at which degradation of the target reaches its halfway point.

With `CCOC(=O)Cn1cc(NC(=O)c2ccc(-c3ccc(CCCCCCCCCNC[C@H]4CC[C@H](n5cc(NC(=O)c6cnn7ccc(N8C[C@H]9C[C@@H]8CO9)nc67)c(C(F)F)n5)CC4)cc3)cc2OC)ccc1=O` [Compound I-67], the DC50 in assay [1] and in assay [2] was greater than 10 µM in each case.

Take `CC(C)(O)c1cc2nn([C@H]3CC[C@H](CNCCCCCCCCCn4ccc5c(C(=O)Nc6ccc(=O)n(CC(=O)O)c6)cccc54)CC3)cc2cc1NC(=O)c1cccc(C(F)(F)F)n1` [Compound I-68]: the 50% degradation concentration (DC50) in assay [1] was greater than 10 µM; in assay [2], 1 to 10 µM.

As to `CCOC(=O)Cn1cc(NC(=O)c2cccc3c2ccn3CCCCCCCCCNC[C@H]2CC[C@H](n3cc4cc(NC(=O)c5cccc(C(F)(F)F)n5)c(C(C)(C)O)cc4n3)CC2)ccc1=O` [Compound I-69], the DC50 in assay [1] and in assay [2] was 0.1 to 1 µM throughout.

As for `O=C(O)Cn1cc(NC(=O)c2cccc3c2ccn3CCCCCCCCCNC[C@H]2CC[C@H](n3cc(NC(=O)c4cnn5ccc(N6C[C@H]7C[C@@H]6CO7)nc45)c(C(F)F)n3)CC2)ccc1=O` [Compound I-70], the DC50 in assay [1] and in assay [2] was greater than 10 µM in each case.

For the compound `CCOC(=O)Cn1cc(NC(=O)c2cccc3c2ccn3CCCCCCNC[C@H]2CC[C@H](n3cc4cc(NC(=O)c5cccc(C(F)(F)F)n5)c(C(C)(C)O)cc4n3)CC2)ccc1=O` [Compound I-71], the DC50 in assay [1] and in assay [2] was greater than 10 µM each time.

In the case of `CCOC(=O)Cn1cc(NC(=O)c2cc(CCCCCCCCCNC[C@H]3CC[C@H](n4cc5cc(NC(=O)c6cccc(C(F)(F)F)n6)c(C(C)(C)O)cc5n4)CC3)cc(-c3cccnc3)c2)ccc1=O` [Compound I-72], the DC50 in assay [1] and in assay [2] was 1 to 10 µM throughout.

For `CCOC(=O)Cn1cc(NC(=O)c2cccc3c2ccn3CCCCCCCCCNC[C@H]2CC[C@H](n3cc(NC(=O)c4cnn5ccc(N6C[C@H]7C[C@@H]6CO7)nc45)c(C(F)F)n3)CC2)ccc1=O` [Compound I-73], the DC50 in assay [1] and in assay [2] was greater than 10 µM throughout.

`O=C(O)Cn1cc(NC(=O)c2cc(CCCCCCCCCNC[C@H]3CC[C@H](n4cc(NC(=O)c5cnn6ccc(N7C[C@H]8C[C@@H]7CO8)nc56)c(C(F)F)n4)CC3)cc(-c3cccnc3)c2)ccc1=O` [Compound I-74]: the DC50 in assay [1] and in assay [2] was greater than 10 µM each time.

On to `CCOC(=O)Cn1cc(NC(=O)c2cc(CCCCCCCCCNC[C@H]3CC[C@H](n4cc(NC(=O)c5cnn6ccc(N7C[C@H]8C[C@@H]7CO8)nc56)c(C(F)F)n4)CC3)cc(-c3cccnc3)c2)ccc1=O` [Compound I-75], for which the results for the DC50 in assay [1] and in assay [2] were 1 to 10 µM and greater than 10 µM, respectively.

Regarding `O=C(O)Cn1cc(NC(=O)c2cc(CCCNC[C@H]3CC[C@H](n4cc(NC(=O)c5cnn6ccc(N7C[C@H]8C[C@@H]7CO8)nc56)c(C(F)F)n4)CC3)cc(-c3cccnc3)c2)ccc1=O` [Compound I-76], the half-maximal degradation concentration (DC50) in assay [1] and in assay [2] was greater than 10 µM each time.

With `O=C(O)Cn1cc(NC(=O)c2cccc3c2ccn3CCCNC[C@H]2CC[C@H](n3cc(NC(=O)c4cnn5ccc(N6C[C@H]7C[C@@H]6CO7)nc45)c(C(F)F)n3)CC2)ccc1=O` [Compound I-77], the half-maximal degradation concentration (DC50) in assay [1] and in assay [2] was greater than 10 µM throughout.

As for `CC(C)(O)c1cc2nn([C@H]3CC[C@H](CNCCCn4ccc5c(C(=O)Nc6ccc(=O)n(CC(=O)O)c6)cccc54)CC3)cc2cc1NC(=O)c1cccc(C(F)(F)F)n1` [Compound I-78], the DC50 in assay [1] and in assay [2] was greater than 10 µM in each case.

Consider `CCOC(=O)Cn1cc(NC(=O)c2cccc3c2ccn3CCCNC[C@H]2CC[C@H](n3cc4cc(NC(=O)c5cccc(C(F)(F)F)n5)c(C(C)(C)O)cc4n3)CC2)ccc1=O` [Compound I-79], for which the 50% degradation concentration (DC50) in assay [1] and in assay [2] was greater than 10 µM in each case.

As for `CC(C)(O)c1cc2nn([C@H]3CC[C@H](CNCCCc4cc(C(=O)Nc5ccc(=O)n(CC(=O)O)c5)cc(-c5cccnc5)c4)CC3)cc2cc1NC(=O)c1cccc(C(F)(F)F)n1` [Compound I-80], the half-maximal degradation concentration (DC50) in assay [1] and in assay [2] was greater than 10 µM throughout.

As to `CCOC(=O)Cn1cc(NC(=O)c2cccc3c2ccn3CCCNC[C@H]2CC[C@H](n3cc(NC(=O)c4cnn5ccc(N6C[C@H]7C[C@@H]6CO7)nc45)c(C(F)F)n3)CC2)ccc1=O` [Compound I-81], the 50% degradation concentration (DC50) in assay [1] and in assay [2] was greater than 10 µM throughout.

`CCOC(=O)Cn1cc(NC(=O)c2cc(CCCNC[C@H]3CC[C@H](n4cc5cc(NC(=O)c6cccc(C(F)(F)F)n6)c(C(C)(C)O)cc5n4)CC3)cc(-c3cccnc3)c2)ccc1=O` [Compound I-82]: the DC50 in assay [1] and in assay [2] was greater than 10 µM in each case.

Regarding `CCOC(=O)Cn1cc(NC(=O)c2cc(CCCNC[C@H]3CC[C@H](n4cc(NC(=O)c5cnn6ccc(N7C[C@H]8C[C@@H]7CO8)nc56)c(C(F)F)n4)CC3)cc(-c3cccnc3)c2)ccc1=O` [Compound I-83], the half-maximal degradation concentration (DC50) in assay [1] and in assay [2] was greater than 10 µM in each case.

Consider `CC(C)(O)c1cc2nn([C@H]3CC[C@H](CNCCCCCCCCCc4cncc(-c5cccc(C(=O)Nc6ccc(=O)n(CC(=O)O)c6)c5)c4)CC3)cc2cc1NC(=O)c1cccc(C(F)(F)F)n1` [Compound I-84], for which the DC50 in assay [1] was greater than 10 µM; in assay [2] it was 1 to 10 µM.

Consider `O=C(O)Cn1cc(NC(=O)c2cccc(-c3cncc(CCCCCCCCCNC[C@H]4CC[C@H](n5cc(NC(=O)c6cnn7ccc(N8C[C@H]9C[C@@H]8CO9)nc67)c(C(F)F)n5)CC4)c3)c2)ccc1=O` [Compound I-85], for which the 50% degradation concentration (DC50) in assay [1] and in assay [2] was greater than 10 µM throughout.

In the case of `CC(C)(O)c1cc2nn([C@H]3CC[C@H](CNCCCc4cncc(-c5cccc(C(=O)Nc6ccc(=O)n(CC(=O)O)c6)c5)c4)CC3)cc2cc1NC(=O)c1cccc(C(F)(F)F)n1` [Compound I-86], the 50% degradation concentration (DC50) in assay [1] and in assay [2] was greater than 10 µM each time.

As for `O=C(O)Cn1cc(NC(=O)c2cccc(-c3cncc(CCCNC[C@H]4CC[C@H](n5cc(NC(=O)c6cnn7ccc(N8C[C@H]9C[C@@H]8CO9)nc67)c(C(F)F)n5)CC4)c3)c2)ccc1=O` [Compound I-87], the DC50 in assay [1] and in assay [2] was greater than 10 µM each time.

As for `CCOC(=O)Cn1cc(NC(=O)c2cccc(-c3cncc(CCCCCCCCCNC[C@H]4CC[C@H](n5cc6cc(NC(=O)c7cccc(C(F)(F)F)n7)c(C(C)(C)O)cc6n5)CC4)c3)c2)ccc1=O` [Compound I-88, Ethyl 2-[5-[[3-[5-[9-[4-[6-(1-hydroxy-1-methyl-ethyl)—5-[[6-(trifluoromethyl)pyridine-2-carbonyl]amino]indazol-2-yl]cyclohexyl]methylamino]nonyl]-3-pyridyl]benzoyl]amino]-2-oxo-1-pyridyl acetate], the DC50 in assay [1] fell in the range of 1 to 10 µM; in assay [2], 0.1 to 1 µM.

`CCOC(=O)Cn1cc(NC(=O)c2cccc(-c3cncc(CCCCCCCCCNC[C@H]4CC[C@H](n5cc(NC(=O)c6cnn7ccc(N8C[C@H]9C[C@@H]8CO9)nc67)c(C(F)F)n5)CC4)c3)c2)ccc1=O` [Compound I-89]: the 50% degradation concentration (DC50) in assay [1] and in assay [2] was 1 to 10 µM in each case.

`CCOC(=O)Cn1cc(NC(=O)c2cccc(-c3cncc(CCCNC[C@H]4CC[C@H](n5cc6cc(NC(=O)c7cccc(C(F)(F)F)n7)c(C(C)(C)O)cc6n5)CC4)c3)c2)ccc1=O` [Compound I-90]: the 50% degradation concentration (DC50) in assay [1] and in assay [2] was greater than 10 µM throughout.

For the compound `CCOC(=O)Cn1cc(NC(=O)c2cccc(-c3cncc(CCCNC[C@H]4CC[C@H](n5cc(NC(=O)c6cnn7ccc(N8C[C@H]9C[C@@H]8CO9)nc67)c(C(F)F)n5)CC4)c3)c2)ccc1=O` [Compound I-91], the half-maximal degradation concentration (DC50) in assay [1] and in assay [2] was greater than 10 µM throughout.

With `O=C(O)Cn1cc(NC(=O)c2cccc(-c3cncc(CCCCCCNC[C@H]4CC[C@H](n5cc(NC(=O)c6cnn7ccc(N8C[C@H]9C[C@@H]8CO9)nc67)c(C(F)F)n5)CC4)c3)c2)ccc1=O` [Compound I-92], the 50% degradation concentration (DC50) in assay [1] and in assay [2] was greater than 10 µM throughout.

`O=C(O)Cn1cc(NC(=O)c2cc(CCCCCCNC[C@H]3CC[C@H](n4cc(NC(=O)c5cnn6ccc(N7C[C@H]8C[C@@H]7CO8)nc56)c(C(F)F)n4)CC3)cc(-c3cccnc3)c2)ccc1=O` [Compound I-93]: the DC50 in assay [1] and in assay [2] was greater than 10 µM in each case.

As for `CC(C)(O)c1cc2nn([C@H]3CC[C@H](CNCCCCCCc4cncc(-c5cccc(C(=O)Nc6ccc(=O)n(CC(=O)O)c6)c5)c4)CC3)cc2cc1NC(=O)c1cccc(C(F)(F)F)n1` [Compound I-94], the half-maximal degradation concentration (DC50) in assay [1] is 1 to 10 µM; in assay [2] it was greater than 10 µM.

With `CCOC(=O)Cn1cc(NC(=O)c2cc(CCCCCCNC[C@H]3CC[C@H](n4cc5cc(NC(=O)c6cccc(C(F)(F)F)n6)c(C(C)(C)O)cc5n4)CC3)cc(-c3cccnc3)c2)ccc1=O` [Compound I-95], the 50% degradation concentration (DC50) in assay [1] and in assay [2] was greater than 10 µM each time.
